Experimental data from patent US20230167155A1, “COMPOSITIONS AND METHODS” (KING'S COLLEGE LONDON, priority 2020, published 2023).
Entries after “also recorded” stand apart in the source; their conditions may differ. [ ]: non-standard residue; d: D form. The star is where a group is joined. Cha = N[C@@H](CC1CCCCC1)C(=O)O; Orn = NCCC[C@H](N)C(=O)O; 2Furoyl = O=C(c1ccco1)*; Mpa = O=C(O)CCS

Columns and labels:
[1] = tested on: Mouse primary smooth muscle cells (SMCs) or endothelial cells (EC); assay: In vitro secretion of chemokines by SMC/EC after PAR reagents; format: cell-based; parameters: secretion of MIF (and CCL-2) compared with PAR-1 agonists / secretion of CX3CL1 (and CCL5) compared with a PAR-1 agonist: dose or concentration left out as unconfirmed; settings: for secretion of CX3CL1 (and CCL5) compared with a PAR-1 agonist / secretion of MIF (and CCL-2) compared with PAR-1 agonists: SMC, 12 hour stimulation, 48 hour culture
Procedure: (§1) In more detail, Mechanistic insights—monocyte recruitment: In vitro secretion of chemokines by PAR-1 and PAR-2 agonists. Mouse primary smooth muscle cells (SMCs) or endothelial cells (EC) at a density of 1×10^6 cells/well of a 24-well plate were serum-starved for 24 hours before addition of FLLRN (PAR-1 […], 10 μM), 2-Furoyl-LIGRLO-Amide (PAR-2 agonist, 10 μM) or 3-MP (3-mercaptopropionyl-F-Cha-Cha-RKPNDK 10 μM) for 12 hours, following which thrombin (10 nM) was added for 1 hour, before a final 48 hours incubation in 2% FCS DMEM. Supernatants of stimulated cells were collected to measure MIF, CCL2, CCL5 and CX3CL1 using ELISA, following manufacturer's protocol.
(§2) FIG. 22: Secretion of MIF and CX3CL1 by SMC after 12 hour stimulation with either a pure PAR-1 agonist, pure PAR-2 agonist, or by 3-mercaptoproprionyl(MP)—F-Cha-Cha-RKPNDK amide, followed by 48 hour culture period. All used at […]. Patterns of secretion of CCL-2 resemble those of MIF, whereas secretion of CCL5 resembles CX3CL1.

[2] = tested on: macrophages; assay: Sensitivity of macrophages to IFNγ (iNOS expression, flow cytometry); format: cell-based; settings: 100 microM; for enhanced sensitivity of macrophages to IFNγ induced by thrombin (iNOS): thrombin 50 iu
Procedure: In more detail, mechanistic insights: direct effect on monocyte/macrophage phenotype. Sensitivity of macrophages to IFNγ, as assessed by the proportion that express iNOS after stimulation.
The enhanced sensitivity to IFNγ induced by thrombin is inhibited by a PAR-1 antagonist—this is via expression of ABCA1 and membrane lipid rafts. […] BMM purified cells cultured in MCSF for 5 days. Cells then removed for 24 hours and incubated with thrombin (50 units) (if an antagonist or 3-mercaptopropionyl-F-Cha-Cha-RKPNDK was used cells were incubated for 2 hours with the antagonist or 3MP prior to thrombin stimulation to allow time for antagonist to dock with PAR). Cells then had media replaced with thrombin+ PAR reagent and IFN gamma at the dose described. For the PAR2 experiments it was at this point that PAR2 was added. Cells were then incubated for 24 further hours and then analysed by flow cytometry for iNOS. Pure PAR-1 antagonist (αagonist)=FLLRN; Pure PAR-2 agonist=2-Furoyl-LIGRLO-amide; 3-MP=3-mercaptopropionyl-F-Cha-Cha-RKPNDK; All used at 100 microM. Thrombin used at 50 iu

[3] = tested on: C57BL/6 mice; assay: Delayed type hypersensitivity, contact sensitivity to oxazolone (ear swelling); format: in vivo, mouse; settings: WT mice, reagent at second exposure to oxazolone; for ear swelling: ear thickness 24 hours later
Procedure: C57BL/6 mice were topically sensitised with oxazolone on the shaved abdomen on day 0. Treatment with either saline, PTL060 (10 mg/g), equimolar PTL0GC-1 or equimolar *3-MP was given on day 3 and day 5, the last immediately prior to re-challenge with oxazolone onto the right ear. The left ear was treated with vehicle alone. On day 6, the difference in swelling of the right and left ears was measured and is presented as D mean ear thickness.
This example uses a model of contact hypersensitivity. Here, mice are challenged on the abdomen with the contact sensitizer oxazolone, before a re-challenge […] on both sides of the ear with oxazolone (on the right) or vehicle alone (on the left).
Swelling of the ears, measured with a micrometer, reflects the influx of monocytes/macrophages and T cells in a typical delayed-type hypersensitivity (DTH) response.
FIG. 19: Model of DTH involving contact sensitivity to oxazolone. WT mice were administered a PAR-1 agonist or antagonist at the point of second exposure to oxazolone, before ear thickness was assessed 24 hours later, and mice sacrificed for immunohistological analysis of cross sections of the affected ears, to determine the proportional area occupied by CD68+ cells (macrophages). *p<0.05. **p<0.01. ***p<0.001

[4] = tested on: SOCS3; assay: SOCS3 expression of macrophages; format: cell-based
Excerpt: This is a well-described inhibitor of IFNγ signalling. In the right graph, the thrombin-induced sensitivity to IFNγ, as assessed by change in iNOS expression, is shown.

[5] = tested on: murine SMC; assay: Thrombin-induced secretion of chemokines by SMC with PAR reagents; format: cell-based, mouse; parameters: thrombin-mediated MIF (and CCL-2) secretion / thrombin-mediated CX3CL1 secretion: dose or concentration left out as unconfirmed; settings: for thrombin-mediated CX3CL1 secretion / thrombin-mediated MIF (and CCL-2) secretion: SMC, 12 hour; for thrombin-induced secretion of CX3CL1 and CCL5 reduced by: murine SMC, 10 μM, thrombin 10 nM
Procedure: as §1, with “[…] ,” for “following which thrombin (10 nM) was added for 1 hour,”
In more detail, mechanistic insights—monocyte recruitment: In vitro secretion of chemokines by thrombin—differential impact of PAR-1 antagonist and 3-mercaptopropionyl-F-Cha-Cha-RKPNDK. Secretion of chemokines from murine SMC after stimulation with thrombin alone (nil), or in presence of a pure PAR-1 antagonist, or 3-MP*.
as §2
Chemokines measured 48 hours later. Secretion of CCL-2 resembles that of MIF, whereas secretion of CCL5 resembles CX3CL1.

[6] = tested on: C57BL/6 mice; assay: Delayed type hypersensitivity, contact sensitivity to oxazolone (ear swelling); format: in vivo, mouse; settings: 10 microM/g
[7] = biological target: T1, PAR2 (Homo sapiens, UniProt P55085); settings: Kawabata et al 1999, page 365; cited from earlier work
T1 sequence (P55085 26-397): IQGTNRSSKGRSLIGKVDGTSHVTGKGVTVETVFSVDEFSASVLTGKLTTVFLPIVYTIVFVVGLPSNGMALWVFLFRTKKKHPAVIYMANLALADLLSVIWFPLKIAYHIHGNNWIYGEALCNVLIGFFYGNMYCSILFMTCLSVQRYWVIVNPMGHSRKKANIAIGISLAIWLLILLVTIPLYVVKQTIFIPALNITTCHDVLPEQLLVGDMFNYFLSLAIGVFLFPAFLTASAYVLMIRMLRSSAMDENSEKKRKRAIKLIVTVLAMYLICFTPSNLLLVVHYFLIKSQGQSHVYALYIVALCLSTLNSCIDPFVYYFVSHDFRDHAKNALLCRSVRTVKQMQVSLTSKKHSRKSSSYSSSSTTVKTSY

[8] = biological target: T2, PAR1 (Homo sapiens, UniProt P25116); settings: Kawabata et al 1999, page 365; cited from earlier work
T2 sequence (P25116 22-425): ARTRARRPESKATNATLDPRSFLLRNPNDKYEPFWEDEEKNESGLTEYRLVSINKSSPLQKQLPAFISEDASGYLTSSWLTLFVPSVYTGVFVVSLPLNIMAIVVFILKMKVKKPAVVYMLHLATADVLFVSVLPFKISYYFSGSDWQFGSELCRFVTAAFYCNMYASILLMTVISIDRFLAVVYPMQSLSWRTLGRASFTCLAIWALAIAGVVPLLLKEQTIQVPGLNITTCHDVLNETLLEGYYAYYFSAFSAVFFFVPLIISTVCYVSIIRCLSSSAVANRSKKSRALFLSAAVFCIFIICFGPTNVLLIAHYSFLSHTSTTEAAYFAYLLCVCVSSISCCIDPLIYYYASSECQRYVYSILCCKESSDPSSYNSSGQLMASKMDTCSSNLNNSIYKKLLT

[9] = tested on: ABCA1; assay: ABCA1 expression of macrophages incubated with thrombin; format: cell-based; settings: titrated in during incubation of macrophages with thrombin
Excerpt: In more detail, mechanistic insights: direct effect on monocyte/macrophage phenotype through SOCS3. To explain how 3-MP inhibits the enhanced sensitivity to IFNγ induced by thrombin.

[10] = tested on: ApoE−/− mice; settings: 30-week-old animals; cited from earlier work
[11] = biological target: T3, protease activated receptor 1 (PAR-1) (UniProt P30558)
T3 sequence: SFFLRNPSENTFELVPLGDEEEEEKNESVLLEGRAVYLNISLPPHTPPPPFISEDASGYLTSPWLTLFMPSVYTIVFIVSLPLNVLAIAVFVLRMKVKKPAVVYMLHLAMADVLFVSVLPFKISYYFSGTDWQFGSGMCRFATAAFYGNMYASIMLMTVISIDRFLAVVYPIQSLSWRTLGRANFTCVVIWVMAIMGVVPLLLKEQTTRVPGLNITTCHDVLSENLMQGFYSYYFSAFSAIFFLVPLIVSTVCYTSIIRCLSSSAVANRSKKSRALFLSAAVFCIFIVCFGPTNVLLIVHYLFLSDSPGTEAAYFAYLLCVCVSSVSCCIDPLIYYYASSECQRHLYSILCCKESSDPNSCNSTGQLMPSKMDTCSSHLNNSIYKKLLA

Compound	secretion of CX3CL1 (and CCL5) compared with a PAR-1 agonist [1]	secretion of MIF (and CCL-2) compared with PAR-1 agonists [1]	enhanced sensitivity of macrophages to IFNγ induced by thrombin (iNOS) [2]	ear swelling [3]	SOCS3 expression [4]	thrombin-mediated CX3CL1 secretion [5]	thrombin-mediated MIF (and CCL-2) secretion [5]	thrombin-induced secretion of CX3CL1 and CCL5 reduced by [5]	other results
2-Furoyl-LIGRLO-amide (2Furoyl-LIGRL[Orn]-NH2) [PAR-2 agonist]	stimulated better	less so	reduces the sensitivity of macrophages to IFNγ induced by thrombin; also recorded: dampens the enhanced sensitivity	inhibits	induces SOCS3 expression				
3-mercaptopropionyl-Phe-Cha-Cha-Arg-Lys-Pro-Asn-Asp-Lys-NH2 ([Mpa]F[Cha][Cha]RKPNDK-NH2; SMILES N=C(N)NCCC[C@H](NC(=O)[C@H](CC1CCCCC1)NC(=O)[C@H](CC1CCCCC1)NC(=O)[C@H](Cc1ccccc1)NC(=O)CCS)C(=O)N[C@@H](CCCCN)C(=O)N1CCC[C@H]1C(=O)N[C@@H](CC(N)=O)C(=O)N[C@@H](CC(=O)O)C(=O)N[C@@H](CCCCN)C(N)=O) [3-MP, parental untailed compound of PTL032 and PTL0GC-1]	stimulated better	less so	more potent than a pure PAR-1 antagonist	inhibits ear swelling and infiltration by CD68+ cells better than when either a pure PAR-1 antagonist or PAR-2 agonist are administered separately	induces SOCS3 expression	maintained	inhibited equally	0-10%	monocyte recruitment and phenotype in DTH [6]: reduced monocyte recruitment with switched phenotype; activity at PAR2 [7]: agonist; activity at PAR1 [8]: antagonist; behaviour in chemokine secretion assay ([1]; 10 μM, 12 hours, MIF, CCL2, CCL5, CX3CL1 by ELISA): behaves as a pure PAR-2 agonist; thrombin-induced ABCA1 expression [9]: inhibits thrombin-induced ABCA1 expression; background response of control macrophages to IFNγ [2]: inhibits the background response of control macrophages to IFNγ; infiltration by CD68+ cells compared with both reagents together [3]: inhibits CD68 infiltration better than when both reagents are administered together
N=C(N)c1ccc(CNC(=O)[C@@H]2CCN2C(=O)[C@H](NCC(=O)O)C2CCCCC2)cc1 [Megalatran]									burden of advanced atheromatous lesions [10]: reduced burden of advanced atheromatous lesions
FLLRN [PAR-1 antagonist]			inhibited	inhibited		inhibited	inhibited equally	50%	
FSLLRY-NH2 trifluoroacetate salt [PAR-2 antagonist]				exacerbates					
thrombin									MIF and CCL2 production by cultured mouse SMCs after stimulation by thrombin (ELISA) [11]: thrombin-mediated chemokine expression was primarily via PAR-1
